pIC50, pKi: −log10 of the molar value.

Experiment [1] concerns the target T1, Neutrophil elastase (Homo sapiens, UniProt P08246).
T1 sequence (P08246 whole entry): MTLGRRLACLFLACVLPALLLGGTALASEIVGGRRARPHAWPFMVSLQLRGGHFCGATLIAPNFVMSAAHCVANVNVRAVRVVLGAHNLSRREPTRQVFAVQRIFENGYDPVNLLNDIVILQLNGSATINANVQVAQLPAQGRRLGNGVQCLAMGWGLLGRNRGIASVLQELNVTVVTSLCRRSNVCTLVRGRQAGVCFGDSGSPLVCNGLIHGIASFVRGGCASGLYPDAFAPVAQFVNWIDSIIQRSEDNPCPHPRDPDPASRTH
In words: Compound was tested for its inhibitory effect against Human leukocyte elastase (HLE).

The target in experiment [2] is T1, Neutrophil elastase. Briefly: Inhibition of Human leukocyte elastase.

For orientation: pKi means the negative decadic logarithm of the Ki, by convention in mol/L. Broadly, the pIC50 is −log10 of the IC50, conventionally taken in molar units. A high value points to a low IC50. Compound `CC1=C(C(=O)OCc2ccccc2)N2C(=O)C[C@H]2S1` (racemic) had a negative logarithm of the Ki (pKi) on Neutrophil elastase [1] of 3.51. This compound also showed a negative-log IC50 (pIC50) at Neutrophil elastase [2] of under 4.70.

For the origin of these results see ChEMBL document CHEMBL1151071, “Inhibition of human leukocyte elastase. 5. Inhibition by 6-alkyl substituted penem benzyl esters” (Bioorg Med Chem Lett, 1993).
